Read-outs that look alike come from different tables or passages of the source.

Experiment [1] concerns mechanical allodynia in rats that had undergone spinal nerve ligation. The experiment is described as follows: Analgesic effect: mechanical allodynia (von Frey) after L5/L6 spinal nerve ligation. To be noted: oral, 60 minutes before von Frey testing; percentage of maximal protective effect relative to vehicle; Sprague Dawley rats.
Experiment [2] concerns gabapentin binding site. To be noted: cited from earlier work.
The mark [3] stands for this setting: anti-convulsant drugs, background statement.

Compound `N[C@H](C(=O)O)c1ccccc1` [(2S)-amino(phenyl)acetic acid] came in with an EC50 in experiment [1] of 50 µmol/kg.
Same read-out and setting: the figure for `NCC1(CC(=O)O)CCCCC1` [Gabapentin] is 160 µmol/kg.
Regarding `C[C@]12N[C@H](Cc3ccccc31)c1ccccc12` [MK801], the “interaction with the gabapentin binding site” value (“interaction” below) in experiment [2] is recorded as “do not interact”.
Take `Cn1c(=O)c2c(ncn2C)n(C)c1=O` [caffeine]: the “interaction” value in experiment [2] (ligands for other calcium channel subtypes, background statement) is given as “do not interact”.
For `COc1cc(CNC(=O)CCCC/C=C/C(C)C)ccc1O` [capsaisin], in experiment [2], the “interaction” value is “do not interact”.
For the compound `NC(=O)N1c2ccccc2C=Cc2ccccc21` [carbamazepine], in experiment [2] (setting [3]), the “competition for gabapentin binding” value is given as “do not compete”.
`CN1C(=O)CN=C(c2ccccc2)c2cc(Cl)ccc21` [diazepam]: the “competition for gabapentin binding” value in experiment [2] is “do not compete”.
With `CCC1(c2ccccc2)C(=O)NC(=O)NC1=O` [phenobarbitone], the “competition for gabapentin binding” value in experiment [2] is “do not compete”.
For `O=C1NC(=O)C(c2ccccc2)(c2ccccc2)N1` [phenytoin], the “competition for gabapentin binding” value in experiment [2] (setting [3]) is listed as “do not compete”.
Take `COc1ccc(CCN(C)CCCC(C#N)(c2ccc(OC)c(OC)c2)C(C)C)cc1OC` (centres unmarked) [verapamil]: in experiment [2], the “interaction” value is “do not interact”.
On to ryanodine, for which the “interaction” value in experiment [2] is “do not interact”.

These data come from patent publication US7354955B2, “(2S)-amino(phenyl)acetic acid and derivatives as α2δ voltage-gated calcium channel ligands” (Abbott Laboratories, priority 2004, dated 2008).
